Source: ChEMBL document CHEMBL1158419, “3D-QSAR study of 8-azabicyclo[3.2.1] octane analogs antagonists of cholinergic receptor” (Bioorg Med Chem Lett, 2009)

Test: Antagonist activity at muscarinic receptor
Format: functional

Row | Compound | pKi
1 | CN1[C@@H]2C[C@@H](OC(=O)C(c3ccccc3)C3CCCC3)C[C@H]1[C@@H]1O[C@@H]12 (some centres not stated) | 7.14
2 | CCCCCCOC(=O)C(C(=O)O[C@@H]1C[C@@H]2[C@H]3O[C@H]3[C@H](C1)[N+]2(C)C)c1ccccc1 (some centres not stated) | 7.33
3 | CN1C2CC[C@@H]1C[C@H](OC(c1ccc(F)cc1)c1ccc(F)cc1)C2 (single isomer, unassigned) | 1.06
4 | C[N+]1(C)[C@@H]2C[C@@H](OC(=O)C(C(=O)OC3CCCCC3)c3ccccc3)C[C@H]1[C@@H]1O[C@@H]12 (some centres not stated) | 8.01
5 | CN1[C@@H]2CC[C@H]1C[C@@H](OC(c1ccccc1)c1ccccc1)C2 [BENZTROPINE] | 0.33
6 | CN1[C@@H]2C[C@@H](OC(=O)[C@H](CO)c3ccccc3)C[C@H]1[C@@H]1O[C@@H]12 [SCOPOLAMINE] | 8.95
7 | CCOC(=O)C(C(=O)O[C@@H]1CC2[C@H]3O[C@H]3[C@H](C1)[N+]2(C)C)c1ccccc1 (single isomer, unassigned) | 8.32
8 | Fc1ccc(C(O[C@@H]2CC3CC[C@H](C2)N3Cc2ccccc2)c2ccc(F)cc2)cc1 (single isomer, unassigned) | 3.01
9 | C[N+]1(C)[C@@H]2CC[C@H]1C[C@@H](OC(=O)CCC(C(=O)O[C@@H]1C[C@H]3CC[C@@H](C1)[N+]3(C)C)c1ccccc1)C2 (some centres not stated) | 6.5
10 | CCOC(=O)C(C(=O)O[C@@H]1C[C@@H]2[C@H]3O[C@H]3[C@H](C1)[N+]2(C)C)(c1ccccc1)C1CCCC1 (some centres not stated) | 7.98
11 | C[S+]([O-])COC(=O)C(O[C@@H]1CC2CC[C@H](C1)[N+]2(C)C)c1ccccc1 (single isomer, unassigned) | 7.25
12 | C=CCN1C2CC[C@@H]1C[C@H](OC(c1ccc(F)cc1)c1ccc(F)cc1)C2 (single isomer, unassigned) | 2.25
13 | CCCCN1C2CC[C@@H]1C[C@H](OC(c1ccc(F)cc1)c1ccc(F)cc1)C2 (single isomer, unassigned) | 2.6
14 | COC(=O)C(C(=O)O[C@@H]1C[C@@H]2[C@H]3O[C@H]3[C@H](C1)[N+]2(C)C)(c1ccccc1)C1CCCC1 (some centres not stated) | 7.28
15 | CN1[C@@H]2CC[C@H]1C[C@@H](OC(=O)C(CO)c1ccccc1)C2 (some centres not stated) [ATROPINE] | 9.34
16 | C[N+]1(C)C2CCC1CC(OC(=O)C(CC(=O)O[C@H]1C[C@H]3CC[C@@H](C1)[N+]3(C)C)c1ccccc1)C2 (some centres not stated) | 7.18
17 | COC(=O)[C@H]1[C@@H](OC(=O)c2ccccc2)C[C@@H]2CC[C@H]1N2C [COCAINE] | 4.79
